Data published in patent publication US8097654B2, “Radiolabeled 3-[3-(benzoyl-amido)benzyloxy]aspartic acid derivative and method of producing the same” (Suntory Holdings Limited, priority 2004, dated 2012).

Legend:
[1] = biological target: T1, EAAT2 (Homo sapiens, UniProt P43004); assay: Inhibition of [14C]-glutamic acid uptake by EAAT2 expressed in MDCK or COS-1 cells; format: cell-based; parameters: expressed in transfected cells; details: 1 μM L-[14C]-glutamic acid, 12 minutes
Method: (§1) In accordance with a known method (Shimamoto, K. et al., Mol. Pharmacol. 53, 195-201, 1998; Bioorg. Med. Chem. Lett. 10, 2407-2410, 2000), the inhibitory activity was assayed as the ability to inhibit the uptake of [^14C]-glutamic acid by human EAAT2 and EAAT3 stably expressed in MDCK (Madin-Darby canine kidney) cells or transiently expressed in COS-1 cells. The glutamate uptake activity was assayed by incubating a mixture of 1 μM of L-[^14C]-glutamic acid with a sample compound at a predetermined concentration for 12 minutes, lysing the cells and then measuring the radioactivity incorporated into the cells with a liquid scintillator. The amount of uptake was expressed in percentage by referring the amount of uptake in the absence of a test compound (i.e., the buffer alone) as 100% and referring the amount of uptake in a sodium-free solution as 0%.

[2] = biological target: T2, human EAAT3 (Homo sapiens, UniProt P43005); assay: Inhibition of [14C]-glutamic acid uptake by EAAT3 expressed in MDCK or COS-1 cells; format: cell-based; details: 1 μM L-[14C]-glutamic acid, 12 minutes
T2 construct: expressed in transfected cells
T2 sequence (P43005 1-524): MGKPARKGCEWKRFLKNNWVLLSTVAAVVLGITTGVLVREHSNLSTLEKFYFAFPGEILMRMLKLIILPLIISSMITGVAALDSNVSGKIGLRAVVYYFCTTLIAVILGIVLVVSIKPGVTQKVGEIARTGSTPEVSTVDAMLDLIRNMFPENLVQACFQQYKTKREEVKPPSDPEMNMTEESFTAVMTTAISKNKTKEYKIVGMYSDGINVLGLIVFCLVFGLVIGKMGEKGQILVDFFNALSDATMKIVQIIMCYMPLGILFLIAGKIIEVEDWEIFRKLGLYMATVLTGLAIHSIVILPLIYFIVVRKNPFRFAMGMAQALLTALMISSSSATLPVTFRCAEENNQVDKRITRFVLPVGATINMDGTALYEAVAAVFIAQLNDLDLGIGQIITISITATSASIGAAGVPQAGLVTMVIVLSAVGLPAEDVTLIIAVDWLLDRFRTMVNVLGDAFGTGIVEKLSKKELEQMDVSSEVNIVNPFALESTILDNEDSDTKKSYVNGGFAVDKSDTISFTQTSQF
Method: as §1

[3] = biological target: T3, EAAT4 (Homo sapiens, UniProt P48664); assay: Saturation binding / Scatchard analysis, EAAT4 expressed on COS-1 cells; details: COS-1 cell membrane preparation
T3 construct: expressed in transfected cells; host or cells: COS-1 cells (membrane preparation)
T3 sequence (P48664 1-564): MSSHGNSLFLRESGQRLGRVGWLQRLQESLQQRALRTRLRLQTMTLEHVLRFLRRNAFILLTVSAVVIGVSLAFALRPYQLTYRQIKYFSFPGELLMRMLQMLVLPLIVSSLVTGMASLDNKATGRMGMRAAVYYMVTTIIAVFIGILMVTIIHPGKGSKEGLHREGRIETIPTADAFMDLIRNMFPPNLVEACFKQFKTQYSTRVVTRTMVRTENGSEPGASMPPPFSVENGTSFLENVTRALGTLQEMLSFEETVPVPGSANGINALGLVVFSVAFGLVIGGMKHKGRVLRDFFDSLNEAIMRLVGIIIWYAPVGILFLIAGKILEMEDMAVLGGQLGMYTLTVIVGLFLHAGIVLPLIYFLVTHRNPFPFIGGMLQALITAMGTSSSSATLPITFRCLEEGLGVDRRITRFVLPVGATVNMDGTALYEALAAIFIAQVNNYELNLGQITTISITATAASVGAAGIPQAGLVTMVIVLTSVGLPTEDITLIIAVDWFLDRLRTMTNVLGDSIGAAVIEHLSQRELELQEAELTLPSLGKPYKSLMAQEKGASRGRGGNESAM
Method: (§2) About 20 ml of a medium contained in a T-flask (150 cm^2) was inoculated with COS-1 cells expressing EAAT which were then incubated therein until they reached confluence. After aspiration of the medium, the cells were washed with about 10 ml of phosphate buffered saline (PBS). After adding 4 ml of 0.25% trypsin/1 mM EDTA and allowing to stand for 5 minutes, 6 ml of the medium was added and the cells were collected into a 50 ml tube. Then they were centrifuged at 1200 rpm for 2 minutes and the supernatant was aspirated. The residue was thoroughly homogenized in a binding buffer (50 mM Tris-HCl (pH 7.4), 120 mM NaCl, 5 mM KCl, 2.5 mM CaCl2, 1 mM MgCl2) with the use of a Polytron homogenizer on ice. The homogenate was centrifuged at 30,000×g at 4° C. for 20 minutes. […]
(§3) Then the reaction was ceased by filtering the mixture through a GF/C filter (Whatman) having been soaked in a 0.1% poly-L-lysine hydrobromide solution for an hour followed by washing with 20 mM Tris buffer. After drying the filter, a solid scintillator MeltiLex A (PerkinElmer) was melted-on and the radioactivity was measured with a β-counter. The radioactivity of the sample free from TFB-TBOA was referred to as the total binding amount, while the radioactivity of the sample containing TFB-TBOA was referred to as the nonspecific binding amount. Then the difference was calculated as the specific binding amount.

[4] = biological target: T1, EAAT2; assay: Saturation binding / Scatchard analysis, EAAT2 expressed on COS-1 cells; parameters: expressed in transfected cells; host or cells: COS-1 cells (membrane preparation); details: COS-1 cell membrane preparation
Method: as §2, §3

[5] = biological target: T4, EAAT5 (Homo sapiens, UniProt O00341); assay: Saturation binding / Scatchard analysis, EAAT5 expressed on COS-1 cells; details: COS-1 cell membrane preparation
T4 construct: expressed in transfected cells; host or cells: COS-1 cells (membrane preparation)
T4 sequence (O00341 whole entry, species assumed): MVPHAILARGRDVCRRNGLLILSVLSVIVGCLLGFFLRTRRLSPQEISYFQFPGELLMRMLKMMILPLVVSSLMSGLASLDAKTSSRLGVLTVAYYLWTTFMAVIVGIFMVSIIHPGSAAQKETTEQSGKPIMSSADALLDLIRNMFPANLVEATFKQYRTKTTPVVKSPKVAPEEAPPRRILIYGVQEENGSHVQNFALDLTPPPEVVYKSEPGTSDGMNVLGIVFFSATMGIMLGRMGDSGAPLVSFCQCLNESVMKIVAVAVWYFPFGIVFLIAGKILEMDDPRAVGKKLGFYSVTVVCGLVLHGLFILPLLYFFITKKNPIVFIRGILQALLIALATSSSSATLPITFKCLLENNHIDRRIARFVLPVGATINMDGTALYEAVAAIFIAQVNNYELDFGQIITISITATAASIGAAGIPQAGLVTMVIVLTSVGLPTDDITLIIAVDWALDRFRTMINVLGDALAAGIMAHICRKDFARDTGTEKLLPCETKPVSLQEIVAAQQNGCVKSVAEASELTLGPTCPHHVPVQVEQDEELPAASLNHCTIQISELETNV
Method: as §2, §3

T1 sequence (P43004 whole entry): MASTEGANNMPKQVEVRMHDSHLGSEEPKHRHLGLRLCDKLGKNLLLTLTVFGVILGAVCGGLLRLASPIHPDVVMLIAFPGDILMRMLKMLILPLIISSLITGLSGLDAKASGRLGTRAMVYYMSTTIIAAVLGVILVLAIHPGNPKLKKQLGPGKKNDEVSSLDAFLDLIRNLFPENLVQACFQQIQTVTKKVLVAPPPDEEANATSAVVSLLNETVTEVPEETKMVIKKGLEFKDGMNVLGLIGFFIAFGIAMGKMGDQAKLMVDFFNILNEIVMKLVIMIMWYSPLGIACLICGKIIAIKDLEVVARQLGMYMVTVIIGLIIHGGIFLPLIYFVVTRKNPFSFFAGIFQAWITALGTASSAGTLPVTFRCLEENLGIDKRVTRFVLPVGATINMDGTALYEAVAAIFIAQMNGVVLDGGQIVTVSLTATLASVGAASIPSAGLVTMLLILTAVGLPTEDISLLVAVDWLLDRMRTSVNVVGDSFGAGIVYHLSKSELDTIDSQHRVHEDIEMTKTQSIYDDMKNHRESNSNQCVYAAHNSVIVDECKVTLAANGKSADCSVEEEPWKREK

Row | IC50 [1] [nM] | IC50 [2] [nM] | Kd [3] [nM] | Kd [4] [nM] | Kd [5] [nM] | Compound
1 | 4.8 ± 0.32 | 56 ± 1.8 |  |  |  | N[C@H](C(=O)O)[C@H](OCc1cccc(NC(=O)c2ccc(I)cc2)c1)C(=O)O [I-BzA-TBOA, (2S,3S)-3-[3-(4-iodobenzoylamino)benzyloxy]aspartic acid]
2 |  |  | 13 | 26 | 30 | [3H]CC([3H])c1ccc(C(=O)Nc2cccc(CO[C@H](C(=O)O)[C@H](N)C(=O)O)c2)cc1 (stereo partly shown) [(^3H)Et-BzA-TBOA]
3 | 1300 ± 120 | 1300 ± 120 |  |  |  | NC(C(=O)O)C(OCc1ccccc1)C(=O)O [L-TBOA, threo-β-benzyloxyaspartic acid, reference compound]
